From patent publication US20080090756A1, “Somatostatin agonists” (The Administrators of the Tulane Educational Fund, priority 2001, published 2008)
Bridge positions count the residues as written; N and C are the ends. Square brackets hold non-standard residues; d marks the D form. Peptide text beside a SMILES is read from it. dNMeW = CN[C@H](Cc1c[nH]c2ccccc12)C(=O)O; NMeY = CN[C@@H](Cc1ccc(O)cc1)C(=O)O; NMeF = CN[C@@H](Cc1ccccc1)C(=O)O; NMeT = CN[C@H](C(=O)O)[C@@H](C)O; NMeK = CN[C@@H](CCCCN)C(=O)O; NMeC = CN[C@@H](CS)C(=O)O

Tests used:
hSSTR-5 = molecular target: T1, hSSTR-5 (Homo sapiens, UniProt P35346); assay: Radioligand binding assay, cloned human somatostatin receptor type 5; conditions: CHO-K1 cell membranes, displacement of [125I]Tyr11-SRIF; mean ± SEM, single values = one experiment; read-out: Kd ± SEM hsst5
T1 construct: each containing the entire coding region of the full-length receptors; expressed in transfected cells
Description: (§1) Functional Expression of the Cloned Human Somatostatin Receptors. The genomic clones containing the human somatostatin receptors (hSSTR-1 to hSSTR-5) (Yamada, Y., et al. al., Proc. Natl. Acad. Sci. USA. 1992, 89, 251-255; Yasuda, K., et al., J. Biol. Chem. 1992, 267, 20422-20428; Yamada, Y., et al., Mol. Pharmacol. 1992, 42, 2136-2142; Rohrer, L., et al., Proc. Natl. Acad. Sci. USA. 1993, 90, 4196-4200.) were kindly provided by Dr. Graeme I. Bell of the University of Chicago. The hSSTR-1, hSSTR-2, hSSTR-3, hSSTR-4 and hSSTR-5 cDNAs were isolated as a 1.5-kb PstI-XmnI fragment, 1.7-kb BamHI-HindIII fragment, 2.0-kb NcoI-HindIII fragment, 1.4-kb NheI-NdeI fragment, and a 1.2-kb HindIII-XbaI fragment, respectively, each containing the entire coding region of the full-length receptors. These fragments were independently subcloned into the corresponding restriction endonuclease sites in the mammalian expression vector pCMV5, downstream from the human cytomegalovirus (CMV) promoter, to produce the expression plasmids pCMV5/hSSTR-1, pCMV5/hSSTR-2, pCMV5/hSSTR-3, pCMV5/hSSTR-4 and pCMV5/hSSTR-5. For transfection into CHO-K1 cells, a plasmid, pRSV-neo (American Type Culture Collection, Rockville, Md.), carrying the neomycin mammalian cell selectable marker was added.
(§2) Receptor Expression and Transfection. Transfections were performed by the calcium phosphate method. CHO-K1 cells were maintained in α-minimum essential medium (α-MEM; Gibco) supplemented with 10% fetal calf serum and transfected with each of the expression plasmids using calcium phosphate precipitation. Clones that had inherited the expression plasmid were selected in α-MEM supplemented with 500 μg mL^−1 of geneticin (G418; Gibco). Independent CHO-K1 clones were picked by glass-ring cloning and expanded in culture in the selective media. Membranes were prepared from the isolated clones and hSSTR expression was initially assessed for binding with [^125I]Tyr^11-SRIF and [^125I]MK-678 (for SSTR-2).
(§3) Radioligand Binding Assays. Cell membranes of the 5 cells types were obtained from homogenates (Polytron setting 6, 15 sec) of the corresponding CHO-K1 cells, in ice-cold Tris-HCl (50 mM) and centrifuged (39000 g, 10 min×2), with an intermediate resuspension in fresh buffer. The final pellets were resuspended in Tris-HCl (10 mM) for assay. Aliquots of the membranes were incubated (30 min at 37° C.) with 0.05 nM [^125I]Tyr^11-SRIF (types 1, 3, 4, 5) or [^125I]MK-678 (type 2) in […] (pH 7.4) containing BSA (10 mg mL^−1); MgCl2 (5 mM), Trasylol (200 kIU mL^−1), bacitracin (0.02 mg mL^−1), and phenylmethanesulfonyl fluoride (0.02 mg mL^−1). The final assay volume was 0.3 mL and incubations were terminated by rapid filtration through GF/C filters pre-soaked in 0.3% poly(ethylenimine) using a Brandel rapid filtration module. Each tube and filter was then washed with aliquots of cold buffer (3×5 mL).
(§4) Specific binding is defined as the total radioligand bound minus that bound in the presence of 1.0 μM SRIF. The following total radioligand binding and non-specific binding (nsb) values were typically obtained with these assay systems: hSSTR-1, 7000 cpm total versus 3500 cpm nsb; hSSTR-2, 9000 cpm total versus 1000 cpm nsb; hSSTR-3, 8000 cpm total versus 1000 cpm nsb; hSSTR-4, 6000 cpm total versus 3500 cpm nsb; and hSSTR-5, 7500 cpm total versus 3500 cpm nsb. The binding affinities are expressed as Ki values ±SEM (nM) for each of the five receptor subtypes. Ki values derived for representative compounds of the instant invention are detailed in Table 2.
(§5) The binding affinities (Kd, nM) of all SRIF analogues were determined using their concentration-dependent displacement of ^125I-radiolabeled peptide ligands from membranes isolated from CHO cells transfected with the corresponding human somatostatin receptor.

hSSTR-3 = molecular target: T2, hSSTR-3 (Homo sapiens, UniProt P32745); assay: Radioligand binding assay, cloned human somatostatin receptor type 3; conditions: CHO-K1 cell membranes, displacement of [125I]Tyr11-SRIF; mean ± SEM, single values = one experiment; read-out: Kd ± SEM hsst3
T2 construct: each containing the entire coding region of the full-length receptors; expressed in transfected cells
Description: as §1, §2, §3, §4, §5

hSSTR-1 = molecular target: T3, hSSTR-1 (Homo sapiens, UniProt P30872); assay: Radioligand binding assay, cloned human somatostatin receptor type 1; conditions: CHO-K1 cell membranes, displacement of [125I]Tyr11-SRIF; mean ± SEM, single values = one experiment; read-out: Kd ± SEM hsst1
T3 construct: each containing the entire coding region of the full-length receptors; expressed in transfected cells
Description: as §1, §2, §3, §4, §5

hSSTR-2 = molecular target: T4, hSSTR-2 (Homo sapiens, UniProt P30874); assay: Radioligand binding assay, cloned human somatostatin receptor type 2; conditions: CHO-K1 cell membranes, displacement of [125I]MK-678; mean ± SEM, single values = one experiment; read-out: Kd ± SEM hsst2
T4 construct: each containing the entire coding region of the full-length receptors; expressed in transfected cells
Description: as §1, §2, §3, §4, §5

hSSTR-4 = molecular target: T5, hSSTR-4 (Homo sapiens, UniProt P31391); assay: Radioligand binding assay, cloned human somatostatin receptor type 4; conditions: CHO-K1 cell membranes, displacement of [125I]Tyr11-SRIF; mean ± SEM, single values = one experiment; read-out: Kd ± SEM hsst4
T5 construct: each containing the entire coding region of the full-length receptors; expressed in transfected cells
Description: as §1, §2, §3, §4, §5

T5 sequence (P31391 whole entry): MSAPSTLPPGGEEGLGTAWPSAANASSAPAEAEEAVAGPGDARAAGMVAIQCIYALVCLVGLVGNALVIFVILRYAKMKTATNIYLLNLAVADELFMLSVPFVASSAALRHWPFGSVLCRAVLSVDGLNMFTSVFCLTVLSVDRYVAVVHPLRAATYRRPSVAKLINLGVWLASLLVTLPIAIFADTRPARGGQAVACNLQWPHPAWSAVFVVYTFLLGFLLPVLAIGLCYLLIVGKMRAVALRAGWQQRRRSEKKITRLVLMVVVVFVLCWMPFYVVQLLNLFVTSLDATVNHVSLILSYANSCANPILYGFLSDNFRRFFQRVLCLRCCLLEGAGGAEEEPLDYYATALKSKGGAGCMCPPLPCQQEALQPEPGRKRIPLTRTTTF
T4 sequence (P30874 whole entry): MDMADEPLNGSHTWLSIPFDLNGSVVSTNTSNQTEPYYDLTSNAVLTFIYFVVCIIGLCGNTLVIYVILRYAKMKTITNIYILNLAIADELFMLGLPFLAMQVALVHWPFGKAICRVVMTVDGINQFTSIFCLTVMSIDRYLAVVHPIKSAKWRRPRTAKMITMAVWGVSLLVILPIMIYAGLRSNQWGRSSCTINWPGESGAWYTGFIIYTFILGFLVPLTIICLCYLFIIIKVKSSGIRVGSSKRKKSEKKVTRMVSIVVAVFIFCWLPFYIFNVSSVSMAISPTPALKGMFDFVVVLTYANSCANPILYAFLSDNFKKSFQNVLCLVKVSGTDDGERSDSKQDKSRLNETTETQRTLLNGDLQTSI
T2 sequence (P32745 whole entry): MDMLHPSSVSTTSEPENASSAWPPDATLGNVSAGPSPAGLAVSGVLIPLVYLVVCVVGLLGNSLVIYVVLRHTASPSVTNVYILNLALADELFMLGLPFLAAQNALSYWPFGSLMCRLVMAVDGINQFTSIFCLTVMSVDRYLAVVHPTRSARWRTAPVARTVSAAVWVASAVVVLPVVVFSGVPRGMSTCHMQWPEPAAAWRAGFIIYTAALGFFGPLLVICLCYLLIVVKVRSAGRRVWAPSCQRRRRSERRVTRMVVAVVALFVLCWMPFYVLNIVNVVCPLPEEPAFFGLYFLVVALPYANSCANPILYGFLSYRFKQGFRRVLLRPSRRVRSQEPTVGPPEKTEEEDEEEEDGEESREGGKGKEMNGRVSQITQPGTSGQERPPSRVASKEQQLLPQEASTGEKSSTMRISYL
T3 sequence (P30872 whole entry): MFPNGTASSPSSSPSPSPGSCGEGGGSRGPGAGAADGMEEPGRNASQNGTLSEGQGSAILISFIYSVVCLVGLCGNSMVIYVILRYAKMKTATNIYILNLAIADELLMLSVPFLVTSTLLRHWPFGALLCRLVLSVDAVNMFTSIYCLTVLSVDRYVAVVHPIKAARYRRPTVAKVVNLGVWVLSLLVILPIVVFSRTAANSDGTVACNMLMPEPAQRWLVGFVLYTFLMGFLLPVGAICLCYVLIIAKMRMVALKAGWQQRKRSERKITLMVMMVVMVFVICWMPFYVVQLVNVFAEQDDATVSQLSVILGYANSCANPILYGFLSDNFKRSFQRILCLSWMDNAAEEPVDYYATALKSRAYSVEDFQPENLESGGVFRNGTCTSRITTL
T1 sequence (P35346 whole entry): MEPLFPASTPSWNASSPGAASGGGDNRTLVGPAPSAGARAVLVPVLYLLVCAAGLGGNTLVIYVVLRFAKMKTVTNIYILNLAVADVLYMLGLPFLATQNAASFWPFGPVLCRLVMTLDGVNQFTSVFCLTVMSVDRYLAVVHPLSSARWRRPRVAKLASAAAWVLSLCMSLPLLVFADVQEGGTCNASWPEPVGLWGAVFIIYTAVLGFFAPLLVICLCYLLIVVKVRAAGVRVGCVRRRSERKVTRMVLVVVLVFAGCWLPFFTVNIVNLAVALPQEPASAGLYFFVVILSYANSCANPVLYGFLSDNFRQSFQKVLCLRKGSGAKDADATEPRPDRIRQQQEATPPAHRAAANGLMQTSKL

Compound	Kd (hSSTR-5)	Kd (hSSTR-3)	Kd (hSSTR-1)	Kd (hSSTR-2)	Kd (hSSTR-4)
CN[C@H](Cc1ccccc1)C(=O)N[C@H]1CSSC[C@@H](C(=O)N[C@H](C(N)=O)[C@@H](C)O)NC(=O)[C@H]([C@@H](C)O)NC(=O)[C@H](CCCCN)NC(=O)[C@@H](Cc2c[nH]c3ccccc23)NC(=O)[C@H](Cc2ccccc2)NC1=O [Example 1, NMeDPhe-cyclo(Cys-Phe-DTrp-Lys-Thr-Cys)-Thr-NH2]	4.89 ± 1.4 nM	17.9 ± 2.5 nM	316 ± 11 nM	1.03 ± 0.26 nM	
C[C@@H](O)[C@H](NC(=O)[C@@H]1CSSC[C@H](NC(=O)[C@H](N)Cc2ccccc2)C(=O)N(C)[C@@H](Cc2ccccc2)C(=O)N[C@H](Cc2c[nH]c3ccccc23)C(=O)N[C@@H](CCCCN)C(=O)N[C@@H]([C@@H](C)O)C(=O)N1)C(N)=O [Example 3, DPhe-cyclo(Cys-NMePhe-DTrp-Lys-Thr-Cys)-Thr-NH2]		830 ± 86 nM	> 1000 nM	13.2 ± 3.85 nM	> 1000 nM
C[C@@H](O)[C@H](NC(=O)[C@@H]1CSSC[C@H](NC(=O)[C@H](N)Cc2ccccc2)C(=O)N[C@@H](Cc2ccccc2)C(=O)N[C@H](Cc2c[nH]c3ccccc23)C(=O)N(C)[C@@H](CCCCN)C(=O)N[C@@H]([C@@H](C)O)C(=O)N1)C(N)=O [Example 5, DPhe-cyclo(Cys-Phe-DTrp-NMeLys-Thr-Cys)-Thr-NH2]				1.84 ± 0.21 nM	> 1000 nM
C[C@@H](O)[C@@H]1NC(=O)[C@H](CCCCN)NC(=O)[C@@H](Cc2c[nH]c3ccccc23)NC(=O)[C@H](Cc2ccccc2)NC(=O)[C@@H](NC(=O)[C@H](N)Cc2ccccc2)CSSC[C@@H](C(=O)N(C)[C@H](C(N)=O)[C@@H](C)O)NC1=O [Example 8, DPhe-cyclo(Cys-Phe-DTrp-Lys-Thr-Cys)-NMeThr-NH2]		124 ± 11.7 nM	> 1000 nM	14.8 ± 1.53 nM	182 nM
C[C@@H](O)[C@H](NC(=O)[C@@H]1CSSC[C@H](NC(=O)[C@H](N)Cc2ccccc2)C(=O)N[C@@H](Cc2ccccc2)C(=O)N[C@H](Cc2c[nH]c3ccccc23)C(=O)N[C@@H](CCCCN)C(=O)N[C@@H]([C@@H](C)O)C(=O)N1)C(N)=O [Example 9, DPhe-cyclo(Cys-Phe-DTrp-Lys-Thr-Cys)-Thr-NH2]		11.8 ± 0.9 nM	761 nM	0.15 ± 0.08 nM	> 1000 nM
CN[C@@H](Cc1ccc(O)cc1)C(=O)N[C@H]1CSSC[C@@H](C(=O)N[C@H](C(N)=O)[C@@H](C)O)NC(=O)[C@H]([C@@H](C)O)NC(=O)[C@H](CCCCN)NC(=O)[C@@H](Cc2c[nH]c3ccccc23)NC(=O)[C@H](Cc2ccccc2)NC1=O [Example 10, NMeTyr-cyclo(Cys-Phe-DTrp-Lys-Thr-Cys)-Thr-NH2] (H-[NMeY]CF[dW]KTCT-NH2; disulfide 2-7; N-terminus assumed)			811 ± 188 nM	9.74 ± 1.87 nM	
C[C@@H](O)[C@H](NC(=O)[C@@H]1CSSC[C@H](N(C)C(=O)[C@@H](N)Cc2ccc(O)cc2)C(=O)N[C@@H](Cc2ccccc2)C(=O)N[C@H](Cc2c[nH]c3ccccc23)C(=O)N[C@@H](CCCCN)C(=O)N[C@@H]([C@@H](C)O)C(=O)N1)C(N)=O [Example 11, Tyr-cyclo(NMeCys-Phe-DTrp-Lys-Thr-Cys)-Thr-NH2] (H-Y[NMeC]F[dW]KTCT-NH2; disulfide 2-7; N-terminus assumed)	114 nM	2.73 ± 2.43 nM		8.96 ± 1.66 nM	
C[C@@H](O)[C@H](NC(=O)[C@@H]1CSSC[C@H](NC(=O)[C@@H](N)Cc2ccc(O)cc2)C(=O)N(C)[C@@H](Cc2ccccc2)C(=O)N[C@H](Cc2c[nH]c3ccccc23)C(=O)N[C@@H](CCCCN)C(=O)N[C@@H]([C@@H](C)O)C(=O)N1)C(N)=O [Example 12, Tyr-cyclo(Cys-NMePhe-DTrp-Lys-Thr-Cys)-Thr-NH2] (H-YC[NMeF][dW]KTCT-NH2; disulfide 2-7; N-terminus assumed)		94.2 ± 16.7 nM	653 ± 245 nM		
C[C@@H](O)[C@H](NC(=O)[C@@H]1CSSC[C@H](NC(=O)[C@@H](N)Cc2ccc(O)cc2)C(=O)N[C@@H](Cc2ccccc2)C(=O)N(C)[C@H](Cc2c[nH]c3ccccc23)C(=O)N[C@@H](CCCCN)C(=O)N[C@@H]([C@@H](C)O)C(=O)N1)C(N)=O [Example 13, Tyr-cyclo(Cys-Phe-NMeDTrp-Lys-Thr-Cys)-Thr-NH2] (H-YCF[dNMeW]KTCT-NH2; disulfide 2-7; N-terminus assumed)			1000 nM	120 ± 22.2 nM	
C[C@@H](O)[C@H](NC(=O)[C@@H]1CSSC[C@H](NC(=O)[C@@H](N)Cc2ccc(O)cc2)C(=O)N[C@@H](Cc2ccccc2)C(=O)N[C@H](Cc2c[nH]c3ccccc23)C(=O)N(C)[C@@H](CCCCN)C(=O)N[C@@H]([C@@H](C)O)C(=O)N1)C(N)=O [Example 14, Tyr-cyclo(Cys-Phe-DTrp-NMeLys-Thr-Cys)-Thr-NH2] (H-YCF[dW][NMeK]TCT-NH2; disulfide 2-7; N-terminus assumed)		51 ± 6.93 nM	956 ± 43 nM	14.2 ± 3.12 nM	
C[C@@H](O)[C@H](NC(=O)[C@@H]1CSSC[C@H](NC(=O)[C@@H](N)Cc2ccc(O)cc2)C(=O)N[C@@H](Cc2ccccc2)C(=O)N[C@H](Cc2c[nH]c3ccccc23)C(=O)N[C@@H](CCCCN)C(=O)N[C@@H]([C@@H](C)O)C(=O)N1C)C(N)=O [Example 16, Tyr-cyclo(Cys-Phe-DTrp-Lys-Thr-NMeCys)-Thr-NH2] (H-YCF[dW]KT[NMeC]T-NH2; disulfide 2-7; N-terminus assumed)			1260 nM		321 nM
C[C@@H](O)[C@@H]1NC(=O)[C@H](CCCCN)NC(=O)[C@@H](Cc2c[nH]c3ccccc23)NC(=O)[C@H](Cc2ccccc2)NC(=O)[C@@H](NC(=O)[C@@H](N)Cc2ccc(O)cc2)CSSC[C@@H](C(=O)N(C)[C@H](C(N)=O)[C@@H](C)O)NC1=O [Example 17, Tyr-cyclo(Cys-Phe-DTrp-Lys-Thr-Cys)-NMeThr-NH2] (H-YCF[dW]KTC[NMeT]-NH2; disulfide 2-7; N-terminus assumed)		535 ± 200 nM	611 ± 3.5 nM	26.2 ± 10.3 nM	353 nM
C[C@@H](O)[C@H](NC(=O)[C@@H]1CSSC[C@H](NC(=O)[C@@H](N)Cc2ccc(O)cc2)C(=O)N[C@@H](Cc2ccccc2)C(=O)N[C@H](Cc2c[nH]c3ccccc23)C(=O)N[C@@H](CCCCN)C(=O)N[C@@H]([C@@H](C)O)C(=O)N1)C(N)=O [Example 18, Tyr-cyclo(Cys-Phe-DTrp-Lys-Thr-Cys)-Thr-NH2] (H-YCF[dW]KTCT-NH2; disulfide 2-7; N-terminus assumed)		18.2 ± 4.21 nM	1000 nM	10.3 ± 3.53 nM	
